# Laboratory results as given in PubChem BioAssay AID1963829 (Molecular Pharmacology Branch, DTP, NCI, 2024).
# Tested on: 935938-334-R-J1-PDC complex spheroid viability
# Experiment: Anticancer human tumor 935938-334-R-J1-PDC patient-derived small intestine adenocarcinoma cell line growth inhibition [POLQ]
# Details: for IC50: curve of first compound; for viability, T/C: stronger effect = lower value
# Experimental: Multicellular complex tumor spheroid response to Polymerase (POL) inhibitors (novobiocin, ART-558, RP6685) in combination with a variety of drugs and investigational agents in selected tumor cell lines
# The POL inhibitors (novobiocin, ART-558, and RP6685) were evaluated both individually and in combination with standard of care and investigational anticancer small molecules within a complex spheroid model of solid tumors. . Complex spheroids include a stromal component modeled by human endothelial cells (HUVEC) and fibroblasts modeled by human mesenchymal stem cells (MSCs). The concentration ranges selected for each drug and investigational agent were based upon clinically achievable concentrations if the clinical Cmax of the agent was known.
# Compounds. The drugs and investigational agents: novobiocin (NSC847541), ART-558 (NSC835418), RP-6685 (NSC848927), peposertib (NSC802822), ceralasertib (NSC780249), elimusertib (NSC800525), camonsertib (NSC841442), AZD-1390 (NSC803789), olaparib (NSC753686), talazoparib (NSC767125), rucaparib (NSC756644), sotorasib (NSC818433), MRTX-1133 (NSC836407), SN-38 (NSC673596), topotecan (NSC609699), epotoside (NSC141540), doxorubicin (NSC123127), gemcitabine (NSC613327), 5-fluorouracil (NSC19893), paclitaxel (NSC125973), vemurafenib (NSC761431), MSA-2 (NSC828583), SN-011 (NSC837082), adavosertib (NSC754352), prexasertib (NSC758257), carboplatin (NSC241240) and oxaliplatin (NSC266046), were obtained from the National Cancer Institute (NCI) Developmental Therapeutics Program Chemical Repository (21). The FDA-approved anticancer drug set is available from the Developmental Therapeutics Program at https://dtp.cancer.gov/organization/dscb/obtaining/. […] The stock solutions were prepared in dimethyl sulfoxide (DMSO, Sigma-Aldrich, St. Louis, MO, cat. D2650), except for the platinum compounds which were prepared in saline (Quality Biological, Gaithersburg, MD, cat. 114-055-101), at 800-fold the tested concentration and stored at -70 degrees C prior to their use. All drugs and investigational agents were tested over a range starting from a high concentration at or near the clinical Cmax and decreasing in half-log increments. If the clinical Cmax for an agent had not been determined, the highest concentration tested was 10 microM, except for SN-38, which was tested at a high concentration of 1 microM.
# Cell Culture. All cells were maintained in an incubator at 37 degrees C and 5% CO2 with 95% humidity. The PDC lines were cultured according to standard operating procedures established by the NCI PDMR (https://pdmr.cancer.gov). Table 3 of the manuscript, lists the cell lines along with the number of the three cell types plated to form the mct-spheroids and media for tumor cell growth. After thawing, all PDC lines, except 997537-175-T-J1-PDC and 415267-285-R-J2-PDC, were cultured in Matrigel-coated flasks prepared with a working solution of 1X Ham's F-12 nutrient mix, without supplementation (Thermo Fisher Scientific, cat. 11765054), 100 U/mL penicillin-streptomycin (Thermo Fisher Scientific, cat. 15140122), and 2.5% Matrigel (Corning Inc., Corning, NY, cat. 354248) for the first three passages. The two PDC lines 997537-175-T-J1-PDC and 415267-285-R-J2-PDC were cultured on uncoated flasks. The 857933-349-R-J2-PDC line was cultured in 6C/Colon 1B media containing advanced DMEM/F-12 (Thermo Fisher Scientific, cat. 12634028), 10 mM HEPES (Thermo Fisher Scientific, cat. 15630080), 1X GlutaMAX supplement (Thermo Fisher Scientific, cat. 35050061), 0.1 mg/mL primocin (InvivoGen, San Diego, CA, cat. ant-pm-2), 10% defined fetal bovine serum, heat inactivated (HyClone Laboratories Inc., Logan, UT, cat. SH30070.03HI), 50% L-WRN conditioned media (ATCC, cat. CRL-3276), 1.25 mM N-Acetyl-L-cysteine (Sigma-Aldrich, cat. A9165), 10 mM nicotinamide (Sigma-Aldrich, cat. N0636), 1X B-27 supplement (Thermo Fisher Scientific, cat. 17504044), 1X N-2 supplement (Thermo Fisher Scientific, cat. […]
# [1] = second compound 0.0316 µM, first compound 0.0316 µM
# [2] = second compound 0.0316 µM, first compound 0.1 µM
# [3] = second compound 0.0316 µM, first compound 0.316 µM
# [4] = second compound 0.0316 µM, first compound 1 µM
# [5] = second compound 0.1 µM, first compound 0.0316 µM
# [6] = second compound 0.1 µM, first compound 0.1 µM
# [7] = second compound 0.1 µM, first compound 0.316 µM
# [8] = second compound 0.1 µM, first compound 1 µM
# [9] = second compound 0.316 µM, first compound 0.0316 µM
# [10] = second compound 0.316 µM, first compound 0.1 µM
# [11] = second compound 0.316 µM, first compound 0.316 µM
# [12] = second compound 0.316 µM, first compound 1 µM
# [13] = second compound 1 µM, first compound 0.0316 µM
# [14] = second compound 1 µM, first compound 0.1 µM
# [15] = second compound 1 µM, first compound 0.316 µM
# [16] = second compound 1 µM, first compound 1 µM
# [17] = second compound 3.16 µM, first compound 0.0316 µM
# [18] = second compound 3.16 µM, first compound 0.1 µM
# [19] = second compound 3.16 µM, first compound 0.316 µM
# [20] = second compound 3.16 µM, first compound 1 µM
# [21] = second compound 10 µM, first compound 0.0316 µM
# [22] = second compound 10 µM, first compound 0.1 µM
# [23] = second compound 10 µM, first compound 0.316 µM
# [24] = second compound 10 µM, first compound 1 µM
# 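Also: spheroids exposed to drugs for seven days before viability read.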
# 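For viability, T/C in this document: 100% = DMSO vehicle control wells.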
smiles,measurement,setting,value
C=CCn1c(=O)c2cnc(Nc3ccc(N4CCN(C)CC4)cc3)nc2n1-c1cccc(C(C)(C)O)n1 + COC1C(OC(N)=O)C(O)C(Oc2ccc3c(O)c(NC(=O)c4ccc(O)c(CC=C(C)C)c4)c(=O)oc3c2C)OC1(C)C,IC50,second compound 0.0316 µM,0.651 µM
same,IC50,second compound 0.1 µM,0.593 µM
same,IC50,second compound 0.316 µM,0.729 µM
same,IC50,second compound 1 µM,0.585 µM
same,IC50,second compound 3.16 µM,0.617 µM
same,IC50,second compound 10 µM,0.392 µM
same,"viability, T/C","second compound 0.0316 µM, first compound 0.00316 µM",97.9%
same,"viability, T/C","second compound 0.0316 µM, first compound 0.01 µM",135%
same,"viability, T/C",[1],82.4%
same,"viability, T/C",[2],135%
same,"viability, T/C",[3],84.5%
same,"viability, T/C",[4],29.5%
same,"viability, T/C","second compound 0.1 µM, first compound 0.00316 µM",136%
same,"viability, T/C","second compound 0.1 µM, first compound 0.01 µM",111%
same,"viability, T/C",[5],88.8%
same,"viability, T/C",[6],134%
same,"viability, T/C",[7],71.4%
same,"viability, T/C",[8],32.1%
same,"viability, T/C","second compound 0.316 µM, first compound 0.00316 µM",126%
same,"viability, T/C","second compound 0.316 µM, first compound 0.01 µM",96.7%
same,"viability, T/C",[9],80.4%
same,"viability, T/C",[10],128%
same,"viability, T/C",[11],78.1%
same,"viability, T/C",[12],39.4%
same,"viability, T/C","second compound 1 µM, first compound 0.00316 µM",93.1%
same,"viability, T/C","second compound 1 µM, first compound 0.01 µM",112%
same,"viability, T/C",[13],123%
same,"viability, T/C",[14],86.3%
same,"viability, T/C",[15],74.8%
same,"viability, T/C",[16],30.4%
same,"viability, T/C","second compound 3.16 µM, first compound 0.00316 µM",130%
same,"viability, T/C","second compound 3.16 µM, first compound 0.01 µM",96.8%
same,"viability, T/C",[17],100%
same,"viability, T/C",[18],112%
same,"viability, T/C",[19],82.5%
same,"viability, T/C",[20],26.6%
same,"viability, T/C","second compound 10 µM, first compound 0.00316 µM",90.5%
same,"viability, T/C","second compound 10 µM, first compound 0.01 µM",115%
same,"viability, T/C",[21],120%
same,"viability, T/C",[22],86.7%
same,"viability, T/C",[23],57.9%
same,"viability, T/C",[24],24.5%
COc1cc(C2c3cc4c(cc3C(OC3OC5COC(C)OC5C(O)C3O)C3COC(=O)C23)OCO4)cc(OC)c1O (centres undefined) + Cc1cccc(N(C)C(=O)C2C(O)CCN2c2nc(C)cc(C(F)(F)F)c2C#N)c1,IC50,second compound 0.0316 µM,0.577 µM
same,IC50,second compound 0.1 µM,0.87 µM
same,IC50,second compound 0.316 µM,0.743 µM
same,IC50,second compound 1 µM,0.471 µM
same,IC50,second compound 3.16 µM,0.397 µM
same,IC50,second compound 10 µM,0.353 µM
same,"viability, T/C",[1],89.9%
same,"viability, T/C",[2],112%
same,"viability, T/C",[3],65.5%
same,"viability, T/C",[4],41.6%
same,"viability, T/C","second compound 0.0316 µM, first compound 3.16 µM",33.3%
same,"viability, T/C","second compound 0.0316 µM, first compound 10 µM",32.7%
same,"viability, T/C",[5],104%
same,"viability, T/C",[6],94.6%
same,"viability, T/C",[7],73.7%
same,"viability, T/C",[8],47.3%
same,"viability, T/C","second compound 0.1 µM, first compound 3.16 µM",33.5%
same,"viability, T/C","second compound 0.1 µM, first compound 10 µM",35.9%
same,"viability, T/C",[9],131%
same,"viability, T/C",[10],114%
same,"viability, T/C",[11],74.1%
same,"viability, T/C",[12],40.6%
same,"viability, T/C","second compound 0.316 µM, first compound 3.16 µM",34.2%
same,"viability, T/C","second compound 0.316 µM, first compound 10 µM",33.8%
same,"viability, T/C",[13],116%
same,"viability, T/C",[14],78%
same,"viability, T/C",[15],61%
same,"viability, T/C",[16],35.9%
same,"viability, T/C","second compound 1 µM, first compound 3.16 µM",30.4%
same,"viability, T/C","second compound 1 µM, first compound 10 µM",30.2%
same,"viability, T/C",[17],84.2%
same,"viability, T/C",[18],93.6%
same,"viability, T/C",[19],54%
same,"viability, T/C",[20],37.4%
same,"viability, T/C","second compound 3.16 µM, first compound 3.16 µM",28.7%
same,"viability, T/C","second compound 3.16 µM, first compound 10 µM",34.7%
same,"viability, T/C",[21],110%
same,"viability, T/C",[22],73.7%
same,"viability, T/C",[23],56.2%
same,"viability, T/C",[24],33.7%
same,"viability, T/C","second compound 10 µM, first compound 3.16 µM",31.1%
same,"viability, T/C","second compound 10 µM, first compound 10 µM",33.1%
